Results from the NIST ThermoML archive (doi:10.1021/acs.jced.8b00975).

Experiment: xn = mol fraction of the nth substance listed
Conditions: Liquid, Vibrating tube method

C=C(C)C(=O)OCCN(C)C [2-(dimethylamino)ethyl methylpropenoate] + CCCCCO
mass density [kg/m3]
Conditions | 100 kPa | 5000 kPa | 10000 kPa | 15000 kPa | 20000 kPa | 25000 kPa | 30000 kPa | 35000 kPa
293.15 K, x1 = 0.0299 | 821.4 | 824.97 | 828.31 | 831.49 | 834.52 | 837.46 | 840.35 | 843.21
293.15 K, x1 = 0.0601 | 827.36 | 830.88 | 834.21 | 837.36 | 840.4 | 843.36 | 846.28 | 849.21
293.15 K, x1 = 0.1006 | 834.83 | 838.39 | 841.73 | 844.91 | 847.96 | 850.92 | 853.82 | 856.7
293.15 K, x1 = 0.2011 | 851.81 | 855.36 | 858.7 | 861.88 | 864.94 | 867.91 | 870.84 | 873.77
293.15 K, x1 = 0.3004 | 866.6 | 870.17 | 873.54 | 876.75 | 879.84 | 882.84 | 885.78 | 888.7
293.15 K, x1 = 0.402 | 879.66 | 883.27 | 886.67 | 889.9 | 893.01 | 896.03 | 899.02 | 902
293.15 K, x1 = 0.4518 | 885.55 | 889.17 | 892.6 | 895.88 | 899.03 | 902.08 | 905.07 | 908.03
293.15 K, x1 = 0.5004 | 890.97 | 894.63 | 898.09 | 901.38 | 904.54 | 907.61 | 910.63 | 913.62
293.15 K, x1 = 0.5486 | 896.13 | 899.78 | 903.24 | 906.53 | 909.71 | 912.79 | 915.83 | 918.85
293.15 K, x1 = 0.601 | 901.42 | 905.08 | 908.55 | 911.86 | 915.05 | 918.14 | 921.18 | 924.2
293.15 K, x1 = 0.7021 | 910.74 | 914.43 | 917.91 | 921.22 | 924.41 | 927.53 | 930.63 | 933.76
293.15 K, x1 = 0.8019 | 918.94 | 922.6 | 926.1 | 929.46 | 932.72 | 935.91 | 939.06 | 942.19
293.15 K, x1 = 0.9008 | 926.27 | 929.96 | 933.48 | 936.87 | 940.15 | 943.35 | 946.5 | 949.63
293.15 K, x1 = 0.9306 | 928.32 | 932.04 | 935.56 | 938.93 | 942.19 | 945.38 | 948.54 | 951.72
293.15 K, x1 = 0.9645 | 930.63 | 934.34 | 937.87 | 941.25 | 944.51 | 947.7 | 950.84 | 953.97
303.15 K, x1 = 0.0307 | 814.24 | 818.14 | 821.74 | 825.07 | 828.2 | 831.19 | 834.07 | 836.92
303.15 K, x1 = 0.0604 | 819.89 | 823.73 | 827.29 | 830.63 | 833.79 | 836.81 | 839.72 | 842.58
303.15 K, x1 = 0.1009 | 827.11 | 830.9 | 834.46 | 837.81 | 841.01 | 844.07 | 847.03 | 849.93
303.15 K, x1 = 0.2025 | 843.87 | 847.62 | 851.18 | 854.56 | 857.79 | 860.91 | 863.93 | 866.88
303.15 K, x1 = 0.3 | 857.94 | 861.71 | 865.28 | 868.68 | 871.95 | 875.13 | 878.24 | 881.32
303.15 K, x1 = 0.3999 | 870.67 | 874.45 | 878.06 | 881.52 | 884.85 | 888.08 | 891.24 | 894.35
303.15 K, x1 = 0.4506 | 876.6 | 880.36 | 883.98 | 887.47 | 890.84 | 894.11 | 897.3 | 900.41
303.15 K, x1 = 0.5037 | 882.4 | 886.19 | 889.83 | 893.35 | 896.76 | 900.07 | 903.29 | 906.44
303.15 K, x1 = 0.5495 | 887.14 | 890.94 | 894.58 | 898.1 | 901.5 | 904.82 | 908.07 | 911.28
303.15 K, x1 = 0.6012 | 892.24 | 896.07 | 899.73 | 903.25 | 906.65 | 909.98 | 913.25 | 916.5
303.15 K, x1 = 0.7014 | 901.28 | 905.16 | 908.86 | 912.4 | 915.83 | 919.2 | 922.54 | 925.89
303.15 K, x1 = 0.8023 | 909.34 | 913.19 | 916.92 | 920.53 | 924.05 | 927.5 | 930.88 | 934.23
303.15 K, x1 = 0.9025 | 916.57 | 920.44 | 924.19 | 927.82 | 931.37 | 934.86 | 938.3 | 941.71
303.15 K, x1 = 0.9307 | 918.44 | 922.34 | 926.12 | 929.8 | 933.38 | 936.89 | 940.33 | 943.73
303.15 K, x1 = 0.9625 | 920.67 | 924.56 | 928.32 | 931.98 | 935.55 | 939.05 | 942.5 | 945.92
313.15 K, x1 = 0.0305 | 806.61 | 810.57 | 814.26 | 817.73 | 821.04 | 824.24 | 827.39 | 830.53
313.15 K, x1 = 0.0602 | 812.04 | 816 | 819.71 | 823.21 | 826.55 | 829.77 | 832.92 | 836.03
313.15 K, x1 = 0.1004 | 819.08 | 823.09 | 826.82 | 830.32 | 833.66 | 836.89 | 840.06 | 843.25
313.15 K, x1 = 0.2011 | 835.38 | 839.35 | 843.09 | 846.64 | 850.04 | 853.32 | 856.53 | 859.71
313.15 K, x1 = 0.2999 | 849.45 | 853.38 | 857.13 | 860.71 | 864.15 | 867.48 | 870.73 | 873.91
313.15 K, x1 = 0.4001 | 862.05 | 866.03 | 869.81 | 873.43 | 876.91 | 880.27 | 883.53 | 886.72
313.15 K, x1 = 0.4514 | 867.85 | 871.88 | 875.71 | 879.36 | 882.87 | 886.24 | 889.51 | 892.71
313.15 K, x1 = 0.498 | 872.93 | 876.96 | 880.8 | 884.47 | 888 | 891.4 | 894.7 | 897.93
313.15 K, x1 = 0.5495 | 878.17 | 882.25 | 886.12 | 889.81 | 893.35 | 896.76 | 900.07 | 903.31
313.15 K, x1 = 0.5984 | 882.9 | 887.01 | 890.9 | 894.6 | 898.15 | 901.58 | 904.91 | 908.18
313.15 K, x1 = 0.7004 | 892.03 | 896.09 | 900.01 | 903.79 | 907.43 | 910.93 | 914.29 | 917.51
313.15 K, x1 = 0.8001 | 900.15 | 904.24 | 908.18 | 911.97 | 915.62 | 919.14 | 922.52 | 925.76
313.15 K, x1 = 0.8995 | 907.42 | 911.49 | 915.45 | 919.28 | 922.99 | 926.57 | 930.03 | 933.36
313.15 K, x1 = 0.9328 | 909.62 | 913.75 | 917.76 | 921.63 | 925.35 | 928.93 | 932.36 | 935.63
313.15 K, x1 = 0.9616 | 911.53 | 915.62 | 919.61 | 923.5 | 927.26 | 930.88 | 934.33 | 937.6
